Source: ChEMBL document CHEMBL1154811, “Dehydroconicasterol and aurantoic acid, a chlorinated polyene derivative, from the Indonesian sponge Theonella swinhoei” (J Nat Prod, 2009)

Assays:
Assay type in all cases: functional, cell-based
[1] = test system: C6; experiment: Cytotoxicity against rat C6 cells
[2] = test system: HeLa; experiment: Cytotoxicity against human HeLa cells
[3] = test system: H9c2; experiment: Cytotoxicity against rat H9c2 cells

Measured: IC50

C/C(Cl)=C/C=C/C=C/C=C/C=C/C(=O)O [AURANTOIC ACID]
> 70 µM: all assays above

C/C(Cl)=C/C=C/C=C/C=C/C=C/C(O)=C1\C(=O)[C@H](CC(N)=O)N([C@@H]2OC[C@@H](O)[C@H](O)[C@H]2O)C1=O [AURANTOSIDE G]
> 70 µM: all assays above

C=C1C2CCC3=C4CC[C@H]([C@H](C)CC[C@@H](C)C(C)C)[C@@]4(C)CC[C@@H]3[C@@]2(C)CC[C@@H]1O (stereo not given in full) [CONICASTEROL]
> 70 µM: all assays above

C=C(CC[C@@H](C)[C@H]1CCC2=C3CCC4C(=C)[C@@H](O)CC[C@]4(C)[C@H]3CC[C@@]21C)C(C)C (stereo not given in full) [DEHYDROCONICASTEROL]
> 70 µM: all assays above

C=C1C2CCC3=C4CC[C@H]([C@H](C)CC[C@H](CC)C(C)C)[C@@]4(C)CC[C@@H]3[C@@]2(C)CC[C@@H]1O (stereo not given in full) [THEONELLASTEROL]
> 70 µM: all assays above
